Measurements published in patent US7273863B1, “Benzophenones as inhibitors of reverse transcriptase” (SmithKline Beecham Corporation, priority 1999, dated 2007).

Experiments:
Assay type in all cases: cell-based
[1] = system: isogenic HIV-1 RT mutant virus E138K; experiment: HeLa cell assay (HIV-LTR β-galactosidase reporter); settings: Human immunodeficiency virus 1, HeLa, read-out: IC50 (nM) Range
Method in brief: (§1)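 HeLa-CD4-LTR-β-gal cells, seeded overnight, were infected with isogenic recombinant HXB2 RT-mutant virus (50 to 70 total RLUs per well, DEAE-dextran) for 1.5 to 2 hours. Five-fold compound titrations (2 μM to 1 pM final, 0.1% DMSO) followed, with 72 h at 37° C. IC50 is chemiluminescent β-gal signal inhibition versus untreated controls.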

[2] = system: isogenic HIV-1 RT mutant virus G190E; experiment: HeLa cell assay (HIV-LTR β-galactosidase reporter); settings: Human immunodeficiency virus 1, HeLa, read-out: IC50 (nM) Range
Method in brief: as §1

[3] = system: isogenic HIV-1 RT mutant virus K103N/L1001; experiment: HeLa cell assay (HIV-LTR β-galactosidase reporter); settings: Human immunodeficiency virus 1, HeLa, read-out: IC50 (nM) Range
Method in brief: as §1

[4] = system: isogenic HIV-1 RT mutant virus Y188C; experiment: HeLa cell assay (HIV-LTR β-galactosidase reporter); settings: Human immunodeficiency virus 1, HeLa, read-out: IC50 (nM) Range
Method in brief: as §1

[5] = system: HIV-2; experiment: MT4 cell assay, antiviral HIV activity (propidium iodide); settings: Human immunodeficiency virus 2, Virus Type HIV-2, read-out: IC50 (nM) Range

SMILES: Cc1cc(S(N)(=O)=O)ccc1NC(=O)COc1ccc(Cl)cc1C(=O)c1cc(F)cc(C(F)(F)F)c1 [Compound 78]
- IC50 [1]: < 10 nM
- IC50 [2]: < 10 nM
- IC50 [3]: < 10 nM
- IC50 [4]: < 10 nM

SMILES: Cc1cc2cn[nH]c2cc1NC(=O)COc1ccc(Cl)cc1C(=O)c1cccc(C#N)c1 [Compound 453]
- IC50 [4]: < 10 nM

SMILES: Cc1cc(S(N)(=O)=O)ccc1NC(=O)COc1ccc(Cl)cc1C(=O)c1cc(F)cc(F)c1 [Compound 62]
- IC50 [5]: 1000 to 3000 nM
- IC50 [1]: < 10 nM
- IC50 [2]: < 10 nM
- IC50 [3]: < 10 nM
- IC50 [4]: < 10 nM

SMILES: Cc1cc(OCCCS(N)(=O)=O)ccc1NC(=O)COc1ccc(Cl)cc1C(=O)c1cc(F)cc(C(F)(F)F)c1 [Compound 257]
- IC50 [1]: < 10 nM
- IC50 [2]: < 10 nM
- IC50 [3]: < 10 nM
- IC50 [4]: < 10 nM

SMILES: Cc1cc(S(N)(=O)=O)ccc1NC(=O)COc1ccc(Cl)cc1C(=O)c1cccc(C#N)c1 [Compound 448]
- IC50 [5]: 1000 to 3000 nM
- IC50 [1]: < 10 nM
- IC50 [2]: < 10 nM
- IC50 [3]: < 10 nM
- IC50 [4]: < 10 nM

SMILES: Cc1cc2nc[nH]c2cc1NC(=O)COc1ccc(Cl)cc1C(=O)c1cc(F)cc(C(F)(F)F)c1 [Compound 239]
- IC50 [1]: < 10 nM
- IC50 [2]: < 10 nM
- IC50 [3]: < 10 nM
- IC50 [4]: < 10 nM
